Two molecules from patent US20070238742A1, “METHODS OF PREPARATION AND RESOLUTION OF E/Z ISOMERS OF VINYLFURO[2,3-D]PYRIMIDINE AND THEIR BIOLOGICAL ACTIVITIES AND RELATED COMPOSITIONS AND METHODS OF TREATMENT” (priority 2006, published 2007) can be followed below.

The test has as its system chick aorta. Description: aortic ring assay: chick aorta pieces in culture with angiogenic agents. It is filed as cell-based. The settings on record: for resumption of angiogenesis / regrowth of capillary-like structures on removal: after removal of the agent, relative to tissue not treated with antiangiogenic agents (control); for inhibition of angiogenesis compared with the E/Z mixture: E-isomer vs E/Z mixture 5. On the procedure: Biological activity in angiogenic assays were chosen as a way to compare anti-angiogenic activity, potency an reversibility of inhibition. The studies were conducted on pieces of chick aorta placed in culture with a mixture of angiogenic agents and various compounds.
Unresolved mixture of E/Z-isomers 5 and isolated E-isomer 1 from the series of compounds under study were assessed for desirable biological activities, i.e., antiangiogenic activity and persistence of inhibitory activity. It is well known that binding vascular endothelial growth factor with antibodies or aptamers or inhibiting VEGF signaling with small molecules reduces and even reverses angiogenesis. However, angiogenesis rapidly resumes once the agent is removed (Mancuso et al., J. Clin. Invest., 116:610-21, 2006; Baffert et al., Am. J. Physiol. Heart, 290:H509-11, 2006). In the case of tumors, rapid regrowth of new vessels contributes to the regrowth and survival of the tumor.

As for `Nc1nc(N)c2c(/C=C/c3ccc4ccccc4c3)coc2n1` (single isomer, unassigned; isomer 1) [E-isomer 1, 5-E-(2-naphthalen-2-yl-vinyl)-furo[2,3-d]pyrimidine-2,4-diamine], the “resumption of angiogenesis / regrowth of capillary-like structures on removal” value is on record as 31%. Besides, the “inhibition of angiogenesis compared with the E/Z mixture” value (comparison in words) was “comparable inhibition of angiogenesis”. Besides, the “inhibition of angiogenesis compared with the E/Z mixture” value (comparison in words, listed as E-isomer) was “greater inhibition on a molar basis”. Moreover, the “resumption of angiogenesis compared with the E/Z parent compound” value (comparison in words, after removal) is “less resumption of angiogenesis”.
For `Nc1nc(N)c2c(C=Cc3ccc4ccccc4c3)coc2n1` [E/Z mixture 5, 5-Z/E-(2-naphthalen-2-yl-vinyl)-furo[2,3-d]pyrimidine-2,4-diamine], the “resumption of angiogenesis / regrowth of capillary-like structures on removal” value is approximately 72%. Also, the “inhibition of capillary outgrowth” value (aortic ring assay, compound present) is given as 84%.
